Test system: Ri-1 tumors
Experiment: Ri-1 human B cell lymphoma (DLBCL) subcutaneous xenograft, tumor volume
Assay type: in vivo, CB.17 SCID mice
Settings: FIG. 4
Procedure: The Ri-1 cell line is a human B cell lymphoma line that represents the ABC-subtype of diffuse large cell B cell lymphoma (DLBCL) and harbors a BCL-2 amplification. ABT-199, also known as Venclexta™ or Venetoclax, is an oral BCL-2 inhibitor, and was used as the cell death-inducing agent.
Briefly, 1×10^7 Ri-1 cells were injected subcutaneously into the right flank of CB.17 SCID mice in a 1:1 mixture of RPMI and Matrigel. Tumors were allowed to grow until they were 200-300 mm^3.

In the case of `CC1(C)CCC(CN2CCN(c3ccc(C(=O)NS(=O)(=O)c4ccc(NCC5CCOCC5)c([N+](=O)[O-])c4)c(Oc4cnc5[nH]ccc5c4)c3)CC2)=C(c2ccc(Cl)cc2)C1` [ABT-199, reference compound], the single-agent anti-tumor activity (2.3D11 100 μg/mouse days 0, 3, 7, ABT-199 25 mg/kg days 0-4) is reported as “potent single-agent anti-tumor activity” and the tumor re-growth (single agents as above, combination: 2.3D11 100 μg/mouse day 0, then oral ABT-199 25 mg/kg days 3, 4, 5) is reported as “tumors re-grew”.
